Patent US4150137A, “Pyridylalkyl esters of 2-(p-isobutylphenyl)acetic acid and propionic acids and use” (Hisamitsu Pharmaceutical Co. Inc., priority 1975, dated 1979)

Columns and labels:
writhing syndrome = experiment: Analgetic activity (acetic acid writhing syndrome); type: in vivo, mouse (dd-strain); settings: Mus musculus, 1 h; oral, mice, 0.6% acetic acid i.p. one hour later; Litchfield-Wilcoxon; read-out: analgetic effect ED50 (95% C.L.)
Procedure: Each test compound suspended in 0.5% tragacanth-saline was orally administered to dd-strain mice(body weight: 18-20 g). After one hour 0.6% acetic acid solution was injected intraperitoneally in a volume of 0.1 ml/10 g.

[1] = system: carrageenin-induced leakage of the pigment, dorsal skin; experiment: Anti-inflammatory activity for topical route (carrageenin, leakage of pigment in dorsal skin); type: in vivo, rat (Wistar-strain); settings: for anti-inflammatory effect, topical (relative inhibition, ibuprofen = 1.0): 1% in polyethylene glycol 300, percent inhibition divided by that of ibuprofen
Procedure: The dorsal skin of male rats of Wistar-strain(body weight: about 100 g) were depilated. Carrageenin suspension was injected intra-dermally at a dose of 250 γ/0.05 ml/site. […] Immediately after injection, the filter paper containing 125.2±18.0 mg of the polyethylene glycol was applied on the injected site. After 3 hours, 1% pontamine sky blue solution was injected intravenously at a dose of 0.5 ml/kg. After further 3 hours, the animals were sacrificed and their dorsal skin were removed to measure the area of leakage of the pigment. The percent inhibition was determined with respect to the results for the control animals.

male mice of dd-strain = type: in vivo; settings: death of animals 72 hours following administration
Procedure: Each test compound suspended in 0.5% tragacanth-saline was administered intraperitoneally or orally to male mice of dd-strain(body weight 16-24 g). The lethal dose was estimated from the death of animals 72 hours following administration.

carrageenin edema = experiment: Anti-inflammatory activity for oral route (carrageenin edema, hind paw); type: in vivo, rat (Wistar-strain); settings: for anti-inflammatory effect, oral, 10 mg/kg (relative inhibition, ibuprofen = 1.0): 10 mg/kg oral; for anti-inflammatory effect, oral, 10 mg/kg (relative inhibition, ibuprofen = 1.0) / anti-inflammatory effect, oral, 50 mg/kg (relative inhibition, ibuprofen = 1.0): percent inhibition divided by that of ibuprofen, carrageenin edema after 3 hours; for anti-inflammatory effect, oral, 50 mg/kg (relative inhibition, ibuprofen = 1.0): 50 mg/kg oral; for mean percent inhibition (carrageenin edema): oral
Procedure: After 30 minutes 0.5-1.0% carrageenin suspended in the water for injection was injected subcutaneously to a hind paw. After 3 hours the carrageenin edema was measured by volume, and the percent inhibition was determined with respect to the results for the control animals.

## CC(C)Cc1ccc(C(C)C(=O)OCCO)cc1 (stereo not shown) [Compound 10]
Writhing syndrome
  ED50: 155 mg/kg
[1]
  anti-inflammatory effect, topical (relative inhibition, ibuprofen = 1.0): 1.9
Male mice of dd-strain
  acute toxicity, oral (lethal dose): > 2000 mg/kg
Carrageenin edema
  anti-inflammatory effect, oral, 10 mg/kg (relative inhibition, ibuprofen = 1.0): 0.5
  anti-inflammatory effect, oral, 50 mg/kg (relative inhibition, ibuprofen = 1.0): 1.0

## CC(C)Cc1ccc(C(C)C(=O)O)cc1 (stereo not shown) [ibuprofen, 2-(p-isobutylphenyl)propionic acid, reference compound]
Writhing syndrome
  ED50: 45.8 mg/kg
[1]; 1% in polyethylene glycol 300
  mean percent inhibition (topical route): 23.8%
Carrageenin edema; 10 mg/kg
  mean percent inhibition (carrageenin edema): 33.5%
Carrageenin edema; 50 mg/kg
  mean percent inhibition (carrageenin edema): 37.4%

## CC(C)Cc1ccc(C(C)C(=O)OCc2cccnc2Cl)cc1 (stereo not shown)
Writhing syndrome
  ED50: 762 mg/kg
[1]
  anti-inflammatory effect, topical (relative inhibition, ibuprofen = 1.0): 1.8
Male mice of dd-strain
  acute toxicity, oral (lethal dose): > 2000 mg/kg
Carrageenin edema
  anti-inflammatory effect, oral, 10 mg/kg (relative inhibition, ibuprofen = 1.0): 0.8
  anti-inflammatory effect, oral, 50 mg/kg (relative inhibition, ibuprofen = 1.0): 2.5

## CC(C)Cc1ccc(C(C)C(=O)OCc2cccc(F)c2)cc1 (stereo not shown)
Writhing syndrome
  ED50: 634 mg/kg
[1]
  anti-inflammatory effect, topical (relative inhibition, ibuprofen = 1.0): 0.9
Carrageenin edema
  anti-inflammatory effect, oral, 10 mg/kg (relative inhibition, ibuprofen = 1.0): 0.8
  anti-inflammatory effect, oral, 50 mg/kg (relative inhibition, ibuprofen = 1.0): 1.7

## CC(=O)OCOC(=O)C(C)c1ccc(CC(C)C)cc1 (stereo not shown) [Compound 17]
Carrageenin edema
  anti-inflammatory effect, oral, 10 mg/kg (relative inhibition, ibuprofen = 1.0): 0.9
  anti-inflammatory effect, oral, 50 mg/kg (relative inhibition, ibuprofen = 1.0): 0.9

## CC(C)Cc1ccc(C(C)C(=O)OCCOCCO)cc1 (stereo not shown) [Compound 16]
Writhing syndrome
  ED50: 151 mg/kg
[1]
  anti-inflammatory effect, topical (relative inhibition, ibuprofen = 1.0): 2.3
Male mice of dd-strain
  acute toxicity, oral (lethal dose): > 2000 mg/kg
Carrageenin edema
  anti-inflammatory effect, oral, 50 mg/kg (relative inhibition, ibuprofen = 1.0): 0.9

## COCCOC(=O)C(C)c1ccc(CC(C)C)cc1 (stereo not shown) [Compound 14]
Writhing syndrome
  ED50: 406 mg/kg
[1]
  anti-inflammatory effect, topical (relative inhibition, ibuprofen = 1.0): 1.2
Male mice of dd-strain
  acute toxicity, oral (lethal dose): 1000 to 2000 mg/kg
Carrageenin edema
  anti-inflammatory effect, oral, 10 mg/kg (relative inhibition, ibuprofen = 1.0): 0.4
  anti-inflammatory effect, oral, 50 mg/kg (relative inhibition, ibuprofen = 1.0): 1.2

## CCN(CC)CCOC(=O)C(C)c1ccc(CC(C)C)cc1 (stereo not shown)
Writhing syndrome
  ED50: 318 mg/kg
[1]
  anti-inflammatory effect, topical (relative inhibition, ibuprofen = 1.0): 3.0
Male mice of dd-strain
  acute toxicity, oral (lethal dose): 500 to 1000 mg/kg
Carrageenin edema
  anti-inflammatory effect, oral, 10 mg/kg (relative inhibition, ibuprofen = 1.0): 1.2
  anti-inflammatory effect, oral, 50 mg/kg (relative inhibition, ibuprofen = 1.0): 0.9

## CC(C)Cc1ccc(C(C)C(=O)OCc2ccccc2F)cc1 (stereo not shown)
Writhing syndrome
  ED50: 202 mg/kg
[1]
  anti-inflammatory effect, topical (relative inhibition, ibuprofen = 1.0): 2.9
Carrageenin edema
  anti-inflammatory effect, oral, 10 mg/kg (relative inhibition, ibuprofen = 1.0): 1.6
  anti-inflammatory effect, oral, 50 mg/kg (relative inhibition, ibuprofen = 1.0): 1.7

## CC(C)Cc1ccc(C(C)C(=O)OCC(F)(F)F)cc1 (stereo not shown) [Compound 9, 2-(p-isobutylphenyl)propionic acid-2,2,2-trifluoroethyl ester]
Writhing syndrome
  ED50: 135 mg/kg
[1]
  anti-inflammatory effect, topical (relative inhibition, ibuprofen = 1.0): 3.6
Male mice of dd-strain
  acute toxicity, oral (lethal dose): 1000 to 2000 mg/kg
Carrageenin edema
  anti-inflammatory effect, oral, 10 mg/kg (relative inhibition, ibuprofen = 1.0): 0.8
  anti-inflammatory effect, oral, 50 mg/kg (relative inhibition, ibuprofen = 1.0): 1.3

## CC(C)Cc1ccc(C(C)C(=O)OCc2ccc(F)cc2)cc1 (stereo not shown)
Carrageenin edema
  anti-inflammatory effect, oral, 10 mg/kg (relative inhibition, ibuprofen = 1.0): 1.1
  anti-inflammatory effect, oral, 50 mg/kg (relative inhibition, ibuprofen = 1.0): 1.2

## CC(C)Cc1ccc(C(C)C(=O)OCc2cccnc2)cc1 (stereo not shown)
Writhing syndrome
  ED50: 31.2 mg/kg
[1]
  anti-inflammatory effect, topical (relative inhibition, ibuprofen = 1.0): 1.7
Male mice of dd-strain
  acute toxicity, oral (lethal dose): 1000 to 2000 mg/kg
Carrageenin edema
  anti-inflammatory effect, oral, 10 mg/kg (relative inhibition, ibuprofen = 1.0): 1.0
  anti-inflammatory effect, oral, 50 mg/kg (relative inhibition, ibuprofen = 1.0): 1.4

## CCCCCCOC(=O)C(C)c1ccc(CC(C)C)cc1 (stereo not shown) [Compound 6]
Writhing syndrome
  ED50: 215 mg/kg
[1]
  anti-inflammatory effect, topical (relative inhibition, ibuprofen = 1.0): 3.5
Male mice of dd-strain
  acute toxicity, oral (lethal dose): > 2000 mg/kg
Carrageenin edema
  anti-inflammatory effect, oral, 50 mg/kg (relative inhibition, ibuprofen = 1.0): 1.2

## CC(C)Cc1ccc(C(C)C(=O)OCc2ccncc2)cc1 (stereo not shown)
Writhing syndrome
  ED50: 87.1 mg/kg
[1]
  anti-inflammatory effect, topical (relative inhibition, ibuprofen = 1.0): 2.7
Male mice of dd-strain
  acute toxicity, oral (lethal dose): > 2000 mg/kg
Carrageenin edema
  anti-inflammatory effect, oral, 10 mg/kg (relative inhibition, ibuprofen = 1.0): 1.0
  anti-inflammatory effect, oral, 50 mg/kg (relative inhibition, ibuprofen = 1.0): 1.2

## CC(C)Cc1ccc(C(C)C(=O)OCCN2CCN(C)CC2)cc1 (stereo not shown)
Writhing syndrome
  ED50: 31.6 mg/kg
[1]
  anti-inflammatory effect, topical (relative inhibition, ibuprofen = 1.0): 2.5
Male mice of dd-strain
  acute toxicity, oral (lethal dose): 1000 to 2000 mg/kg
Carrageenin edema
  anti-inflammatory effect, oral, 10 mg/kg (relative inhibition, ibuprofen = 1.0): 1.0
  anti-inflammatory effect, oral, 50 mg/kg (relative inhibition, ibuprofen = 1.0): 1.1
